# Laboratory results: PubChem BioAssay AID1918944 (Molecular Pharmacology Branch, DTP, NCI, 2023)
# “And” between values parts separate entries of the source, which are not always exact repeats. Equal values may be shown once.
# Test system: 786-0 complex spheroid viability
# Assay: Anticancer human tumor 786-0 cell line growth inhibition;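 also: spheroids exposed to agents for seven days before readout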
# Conditions: for viability, T/C: stronger effect = lower value
# Method in brief: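 Complex spheroids of tumor cells with HUVEC and human MSCs, exposed to iadademstat combined with other agents. Each agent tested in half-log steps from near clinical Cmax (else 10 microM top), DMSO ≤0.25%.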
# [1] = curve of first compound, second compound 0.1 µM
# [2] = curve of first compound, second compound 0.316 µM
# [3] = curve of first compound, second compound 1 µM
# [4] = curve of first compound, second compound 3.16 µM
# [5] = curve of first compound, second compound 10 µM
# [6] = second compound 0.1 µM, first compound 0.00949 µM
# [7] = second compound 0.1 µM, first compound 0.03 µM
# [8] = second compound 0.1 µM, first compound 0.0949 µM
# [9] = second compound 0.1 µM, first compound 0.3 µM
# [10] = second compound 0.316 µM, first compound 0.00949 µM
# [11] = second compound 0.316 µM, first compound 0.03 µM
# [12] = second compound 0.316 µM, first compound 0.0949 µM
# [13] = second compound 0.316 µM, first compound 0.3 µM
# [14] = second compound 1 µM, first compound 0.00949 µM
# [15] = second compound 1 µM, first compound 0.03 µM
# [16] = second compound 1 µM, first compound 0.0949 µM
# [17] = second compound 1 µM, first compound 0.3 µM
# [18] = second compound 3.16 µM, first compound 0.00949 µM
# [19] = second compound 3.16 µM, first compound 0.03 µM
# [20] = second compound 3.16 µM, first compound 0.0949 µM
# [21] = second compound 3.16 µM, first compound 0.3 µM
# [22] = second compound 10 µM, first compound 0.00949 µM
# [23] = second compound 10 µM, first compound 0.03 µM
# [24] = second compound 10 µM, first compound 0.0949 µM
# [25] = second compound 10 µM, first compound 0.3 µM
# [26] = second compound 0.1 µM, first compound 0.000949 µM
# [27] = second compound 0.1 µM, first compound 0.003 µM
# [28] = second compound 0.316 µM, first compound 0.000949 µM
# [29] = second compound 0.316 µM, first compound 0.003 µM
# [30] = second compound 1 µM, first compound 0.000949 µM
# [31] = second compound 1 µM, first compound 0.003 µM
# [32] = second compound 3.16 µM, first compound 0.000949 µM
# [33] = second compound 3.16 µM, first compound 0.003 µM
# [34] = second compound 10 µM, first compound 0.000949 µM
# [35] = second compound 10 µM, first compound 0.003 µM
smiles,measurement,setting,value
O=C(C=Cc1cccc(S(=O)(=O)Nc2ccccc2)c1)NO + NC1CC1c1ccc(-c2cccc(O)c2)cc1,IC50,[1],1300 nM
same,IC50,[2],1300 nM
same,IC50,[3],1250 nM
same,IC50,[4],1110 nM
same,IC50,[5],840 nM
same,"viability, T/C",[6],111%
same,"viability, T/C",[7],107%
same,"viability, T/C",[8],111%
same,"viability, T/C",[9],97%
same,"viability, T/C","second compound 0.1 µM, first compound 0.949 µM",66.1%
same,"viability, T/C","second compound 0.1 µM, first compound 3 µM",8.04%
same,"viability, T/C",[10],107%
same,"viability, T/C",[11],107%
same,"viability, T/C",[12],109%
same,"viability, T/C",[13],96.1%
same,"viability, T/C","second compound 0.316 µM, first compound 0.949 µM",66.3%
same,"viability, T/C","second compound 0.316 µM, first compound 3 µM",7.18%
same,"viability, T/C",[14],106%
same,"viability, T/C",[15],110%
same,"viability, T/C",[16],110%
same,"viability, T/C",[17],92.5%
same,"viability, T/C","second compound 1 µM, first compound 0.949 µM",63.9%
same,"viability, T/C","second compound 1 µM, first compound 3 µM",7.4%
same,"viability, T/C",[18],98.5%
same,"viability, T/C",[19],99.2%
same,"viability, T/C",[20],110%
same,"viability, T/C",[21],90.7%
same,"viability, T/C","second compound 3.16 µM, first compound 0.949 µM",57.4%
same,"viability, T/C","second compound 3.16 µM, first compound 3 µM",4.98%
same,"viability, T/C",[22],92.5%
same,"viability, T/C",[23],96.9%
same,"viability, T/C",[24],92.2%
same,"viability, T/C",[25],87.2%
same,"viability, T/C","second compound 10 µM, first compound 0.949 µM",45.6%
same,"viability, T/C","second compound 10 µM, first compound 3 µM",2.44%
NS(=O)(=O)OCC1CC(n2ccc3c(NC4CCc5ccccc54)ncnc32)CC1O (configuration not stated),"viability, T/C",compound 0.00949 µM,99.2% and 89.2%
same,"viability, T/C",compound 0.03 µM,84.4% and 87.8%
same,"viability, T/C",compound 0.0949 µM,66.8% and 85.6%
same,"viability, T/C",compound 0.3 µM,23.5% and 34.7%
same,"viability, T/C",compound 0.949 µM,6.87% and 15.1%
same,"viability, T/C",compound 3 µM,6.08% and 15.5%
same,IC50,curve of compound,144 nM and 212 nM
COc1ccc([C@@H](O)c2cc(-c3ncnc4cc(N5CCOCC5)ccc34)c(F)cc2Cl)nn1 + NC1CC1c1ccc(-c2cccc(O)c2)cc1,IC50,[1],3590 nM
same,IC50,[2],4960 nM
same,IC50,[3],3760 nM
same,IC50,[4],2790 nM
same,IC50,[5],2200 nM
same,"viability, T/C","second compound 0.1 µM, first compound 0.0316 µM",98.2%
same,"viability, T/C","second compound 0.1 µM, first compound 0.1 µM",100%
same,"viability, T/C","second compound 0.1 µM, first compound 0.316 µM",96.2%
same,"viability, T/C","second compound 0.1 µM, first compound 1 µM",79.2%
same,"viability, T/C","second compound 0.1 µM, first compound 3.16 µM",52%
same,"viability, T/C","second compound 0.1 µM, first compound 10 µM",37%
same,"viability, T/C","second compound 0.316 µM, first compound 0.0316 µM",108%
same,"viability, T/C","second compound 0.316 µM, first compound 0.1 µM",110%
same,"viability, T/C","second compound 0.316 µM, first compound 0.316 µM",102%
same,"viability, T/C","second compound 0.316 µM, first compound 1 µM",86.9%
same,"viability, T/C","second compound 0.316 µM, first compound 3.16 µM",56.2%
same,"viability, T/C","second compound 0.316 µM, first compound 10 µM",40%
same,"viability, T/C","second compound 1 µM, first compound 0.0316 µM",101%
same,"viability, T/C","second compound 1 µM, first compound 0.1 µM",92.9%
same,"viability, T/C","second compound 1 µM, first compound 0.316 µM",93%
same,"viability, T/C","second compound 1 µM, first compound 1 µM",80%
same,"viability, T/C","second compound 1 µM, first compound 3.16 µM",51.7%
same,"viability, T/C","second compound 1 µM, first compound 10 µM",38%
same,"viability, T/C","second compound 3.16 µM, first compound 0.0316 µM",90.1%
same,"viability, T/C","second compound 3.16 µM, first compound 0.1 µM",93.7%
same,"viability, T/C","second compound 3.16 µM, first compound 0.316 µM",88.2%
same,"viability, T/C","second compound 3.16 µM, first compound 1 µM",78.1%
same,"viability, T/C","second compound 3.16 µM, first compound 3.16 µM",46.3%
same,"viability, T/C","second compound 3.16 µM, first compound 10 µM",38.4%
same,"viability, T/C","second compound 10 µM, first compound 0.0316 µM",92.3%
same,"viability, T/C","second compound 10 µM, first compound 0.1 µM",84.5%
same,"viability, T/C","second compound 10 µM, first compound 0.316 µM",81.3%
same,"viability, T/C","second compound 10 µM, first compound 1 µM",65.7%
same,"viability, T/C","second compound 10 µM, first compound 3.16 µM",41.8%
same,"viability, T/C","second compound 10 µM, first compound 10 µM",34.7%
CCc1c2c(nc3ccc(O)cc13)-c1cc3c(c(=O)n1C2)COC(=O)[C@]3(O)CC + NC1CC1c1ccc(-c2cccc(O)c2)cc1,IC50,[1],< 0.949 nM
same,IC50,[2],< 0.949 nM
same,IC50,[3],< 0.949 nM
same,IC50,[4],< 0.949 nM
same,IC50,[5],< 0.949 nM
same,"viability, T/C",[26],4.23%
same,"viability, T/C",[27],4.35%
same,"viability, T/C",[6],4.15%
same,"viability, T/C",[7],6.01%
same,"viability, T/C",[8],8.35%
same,"viability, T/C",[9],9.73%
same,"viability, T/C",[28],4.4%
same,"viability, T/C",[29],3.22%
same,"viability, T/C",[10],4.02%
same,"viability, T/C",[11],6.1%
same,"viability, T/C",[12],8.62%
same,"viability, T/C",[13],9.44%
same,"viability, T/C",[30],3.72%
same,"viability, T/C",[31],3.14%
same,"viability, T/C",[14],4.57%
same,"viability, T/C",[15],6.53%
same,"viability, T/C",[16],7.76%
same,"viability, T/C",[17],8.97%
same,"viability, T/C",[32],4.08%
same,"viability, T/C",[33],3.82%
same,"viability, T/C",[18],4.22%
same,"viability, T/C",[19],6.42%
same,"viability, T/C",[20],7.92%
same,"viability, T/C",[21],7.63%
same,"viability, T/C",[34],3.29%
same,"viability, T/C",[35],4.49%
same,"viability, T/C",[22],5.68%
same,"viability, T/C",[23],8.54%
same,"viability, T/C",[24],9.57%
same,"viability, T/C",[25],9.08%
CCc1c2c(nc3ccc(O)cc13)-c1cc3c(c(=O)n1C2)COC(=O)[C@]3(O)CC + NC1CCC(NC2CC2c2ccccc2)CC1,IC50,[1],< 0.949 nM
same,IC50,[2],< 0.949 nM
same,IC50,[3],< 0.949 nM
same,IC50,[4],< 0.949 nM
same,IC50,[5],< 0.949 nM
same,"viability, T/C",[26],5.59%
same,"viability, T/C",[27],3.78%
same,"viability, T/C",[6],4.66%
same,"viability, T/C",[7],5.87%
same,"viability, T/C",[8],7.32%
same,"viability, T/C",[9],5.08%
same,"viability, T/C",[28],4.71%
same,"viability, T/C",[29],5.02%
same,"viability, T/C",[10],5.44%
same,"viability, T/C",[11],5.35%
same,"viability, T/C",[12],6.11%
same,"viability, T/C",[13],6.29%
same,"viability, T/C",[30],4.87%
same,"viability, T/C",[31],4.67%
same,"viability, T/C",[14],4.31%
same,"viability, T/C",[15],6.32%
same,"viability, T/C",[16],7.36%
same,"viability, T/C",[17],5.93%
same,"viability, T/C",[32],4.72%
same,"viability, T/C",[33],4.8%
same,"viability, T/C",[18],5.76%
same,"viability, T/C",[19],6.79%
same,"viability, T/C",[20],7.9%
same,"viability, T/C",[21],6.54%
same,"viability, T/C",[34],3.83%
same,"viability, T/C",[35],4.29%
same,"viability, T/C",[22],6.51%
same,"viability, T/C",[23],9.43%
same,"viability, T/C",[24],10.1%
same,"viability, T/C",[25],7.07%
